# Source: paper PMC10037499, “High-Throughput Screen Reveals the Structure–Activity Relationship of the Antimicrobial Lasso Peptide Ubonodin” (ACS Central Science, 2023)
# Where a SMILES comes first, the peptide text is derived from it.
# Tests used:
# B. cenocepacia AU0756 = system: B. cenocepacia AU0756
# Experimental: We proceeded to test the antimicrobial activity of the selected variants against two clinical isolates of the Bcc, B. cenocepacia AU0756 and B. cenocepacia AU24362, in broth microdilution assays. […] We revisited these measurements using broth microdilution assays following the Clinical & Laboratory Standards Institute (CLSI) standard.
# Broth microdilution assays of the ubonodin variants were conducted using B. cenocepacia AU0756 and B. cenocepacia AU24362 with guidelines provided by the Clinical & Laboratory Standards Institute (CLSI).
# [1] = system: RNA polymerase (RNAP) in E. coli MC1061; experiment: High-throughput growth-based screen with NGS (enrichment value) for RNA polymerase inhibition; assay type: cell-based; design: key to Experimental observation (enrichment observed in the screen): Dropout: Many variants inhibit RNAP so strongly that they cannot be detected by NGS after IPTG induction (referred to as dropout variants); settings: for Experimental observation (enrichment observed in the screen): Table S4, variants whose MICs were tested; for Enrichment: case.csv of the DeepLasso code, screen stage and IPTG concentration not stated
# Experimental: The single mutant library was analyzed by NGS at multiple stages of sample preparation (Figure 2A) to track its evolution throughout the screen. Specifically, the frequency of each possible aa variant was computed at each stage by summing up counts for each distinct translated sequence and dividing by the total number of counts for all variants (eq S1, SI Methods). Since cells expressing an RNAP-inhibiting ubonodin variant will have growth defects relative to cells with a nontoxic variant, RNAP-inhibiting ubonodin variants are expected to decrease in frequency throughout the screen.
# First, the naïve library (digested PCR products) was sequenced. These digested PCR products were cloned into the pUboABC backbone and transformed into a recA^– cloning strain. This plasmid library was sequenced again to capture any changes upon transformation of the library into E. coli. The change between the naïve library and the cloning transformation library was minimal (Figure S6A). This plasmid library was transformed into the screening strain MC1061, and the plasmid from resulting colonies was also sequenced. The library in MC1061 was grown up en masse in liquid culture to mid log phase, and a portion of the culture was plated. These colonies were scraped, then the plasmid was isolated and sequenced. Finally, the liquid culture was induced with IPTG, after which a portion of the culture was plated and the plasmid was isolated and sequenced. It is key to note that all samples from liquid cultures were plated prior to sequencing to ensure that only viable cells were sequenced. […] The rationale for sequencing at these five different stages was the possibility that leaky expression of uboA would affect the frequency of active mutants prior to IPTG induction. Indeed, we observed that the frequency of some uboA mutants dropped as soon as they were transformed into the screening strain MC1061 while the frequency of other mutants climbed (Figure 2B).
# The behavior of the point variants (i.e., variants with a single aa substitution) was examined by calculating their enrichment values, the base-2 logarithm of the ratio of the variant’s frequency at a specific step of the screen to the variant’s frequency in the cloning transformation library (eq S3, Figure S6). The most relevant enrichment value for ubonodin activity is the comparison between the post-IPTG library and the cloning transformation library (Figure 2A). […] Many variants inhibit RNAP so strongly that they cannot be detected by NGS after IPTG induction (referred to as dropout variants). […] Variants with a stop codon mutation and variants containing an aa substitution at Tyr9 or Tyr27 (positions conserved in MccJ25 and shown to be crucial for RNAP inhibition, see Figure S7)[26] have positive enrichment values (1.2–1.7), serving as quality control for the screen (Figure 3A). Strikingly, 63% of point variants decreased in frequency, indicating a high tolerance to aa substitution. […] The positions with active variants are Asn11 through Ser24 in the loop and Asp3, Ser5, and Ala7 in the ring.
# The single mutant and double mutant libraries were transformed into E. coli MC1061. Colonies were resuspended in media and subcultured into a larger culture. Aliquots of the cultures were sampled prior to and after induction with 10 μM IPTG and 100 μM IPTG and plated. After 16 h of incubation, the colonies were resuspended in media and plasmids were miniprepped.
# Samples were PCR amplified with barcoded primers and combined such that double mutant library samples were over-represented compared to single mutant library samples to provide sufficient coverage of the larger double mutant library. Samples were sequenced using an Illumina MiSeq Micro 300nt and an Illumina NovaSeq 6000 Sequencing System. Downstream analysis of the data was conducted with Python, MATLAB, and R.
# V to reduce genomic DNA contamination. One fragment was amplified with Xho I For Lib and a […]
# E. coli MC1061 = experiment: Spot dilution assay of E. coli producing the ubonodin variant from pUboABC; assay type: cell-based; settings: variant in pUboABC backbone in E. coli MC1061, induction with 100 μM IPTG, ten-fold serial dilutions, biological duplicates
# Experimental: Cultures of E. coli MC1061 transformed with the appropriate plasmids were grown. Aliquots of the cultures were sampled prior to and after induction with 100 μM IPTG, and 10-fold serial dilutions were plated. […]
# All cloning was conducted by PCR amplification (using Q5 polymerase), restriction digestion, ligation, (using T4 DNA ligase), and transformation into chemically competent E. coli XL1-Blue. All cloning with a pUboABC backbone was done by plating transformation mixt ures onto Lysogeny Broth (LB) plates supplemented with 100 μg/mL ampicillin and 0.2% w/v glucose, and colonies were inoculated into LB media supplemented with 100 μ g/mL ampicillin and 0.2% w/v glucose to suppress any leaky expression. Cloning for all other plasmid constructs was done by plating transformation mixtures onto Lysogeny Broth (LB) plates supplemented with 100 μ g/ m L ampicillin, and colonies were inoculated into LB media supplemented with 100 μ g/ m L ampicillin.
# Plasmids were extracted using Qiagen QIAprep Spin Miniprep Kit and sequence verified using Sanger sequencing. All primer sequences are listed in Table S7, and all plasmid constructs are […]
# pUboABC was cloned by amplifying pWC99 with pQE-80 NheI For and pAT8 Nco I Rev.
# The amplicon was ligated into pWC99 digested with Nhe I and Nco I. pUboBC was cloned by digesting pUboABC with Nh e I and Nco I and ligating that fragment into pQE-80 digested with Nhe I and Nco I. pUboABC S5H I16P and pUboABCD S5H I16P were cloned with overlap PCR using pWC99 as the template. One fragment was amplified with pQE-80 EcoRI For and S5H I16P Rev v2 and the second fragment was amplified with S5H I16P For v2 and pQE-80 HindII I Rev. […]
# All remaining plasmid constructs were cloned with overlap PCR. One fragment was amplified with Xho I For Lib and a mutagenic reverse primer and the second fragment was amplified with NheI Rev Lib and a mutagenic forward primer. The templates and mutagenic […]
# The fragments were joined with a second round of PCR and amplified with XhoI For Lib and NheI Rev Lib. Amplicons were ligated into the appropriate plasmid backbone digested with Xho I and Nhe I-HF. The plasmid backbones […]
# The appropriate plasmid was transformed into electrocompetent E. coli MC1061, plated onto LB plates supplemented with 100 μ g/ m L ampicillin and 0.2% w/v glucose, and incubated at 30 °C for 16 hours. Colonies were inoculated into LB media supplemented with 100 μ g/ m L ampicillin and 0.2% w/v glucose and grown at 37 °C for 16 hours. These cultures were sub-cultured to an OD600 of 0.02 in 50 mL of LB media supplemented with 100 μg/mL ampicillin in a 250 mL flask. Once the OD600 reached 0.3, a 1 mL aliquot was sampled immediately prior to inducing the cultures with 100 μM isopropyl β-D-1-thiogalactopyranoside (IPTG). The aliquot was washed with Phosphate-Buffered Saline (PBS) two times and ten-fold serial dilutions were spotted onto LB plates supplemented with 100 μ g/ m L ampicillin and 0.2% w/v glucose. For each following timepoint, a 1 mL sample of each culture was withdrawn, washed with PBS two times, and ten- […]
# fold serial dilutions were spotted onto LB plates supplemented with 100 μ g/m L ampicillin and 0.2% w/v glucose. Plates were incubated for 16 hours at 37 °C before imaging. […]
# 250 mL flask. Ten-fold serial dilutions of the culture were plated onto LB plates supplemented with 100 μ g/ m L ampicillin and 0.2% w/v glucose. The cultures were then grown at 37 °C, and once the OD600 reached 0.3, a 1 mL sample of the culture was withdrawn immediately before the cultures were induced with 10 μM or 100 μM IPTG and returned to grow longer. […]
# All plates were incubated at 37 °C for 16 hours, after which the number of colonies was counted. Three biological replicates of this assay were done.
# Co-Culture of E. coli MC1061 pUboABC and E. coli MC1061 pUboBC pUboABC (0.9 ng) and pUboBC (0.1 ng) were transformed into electrocompetent E. coli MC1061 with a one- hour outgrowth at 37 °C in LB media supplemented with 0.2% w/v glucose. […]
molecule,measurement,setting,value
"CC[C@H](C)[C@@H]1NC(=O)[C@H](CO)NC(=O)CNC(=O)[C@H](CC(=O)O)NC(=O)CNC(=O)CNC(=O)CC[C@@H](C(=O)N[C@@H](Cc2ccc(O)cc2)C(=O)N[C@@H](Cc2ccccc2)C(=O)N[C@@H](CC(N)=O)C(=O)N[C@@H](CCCNC(=N)N)C(=O)N2CCC[C@H]2C(=O)N[C@@H](CC(N)=O)C(=O)N[C@@H](Cc2c[nH]cn2)C(=O)N[C@H](C(=O)N[C@@H](Cc2c[nH]cn2)C(=O)N[C@@H](CC(=O)O)C(=O)N[C@@H](Cc2c[nH]c3ccccc23)C(=O)N[C@@H](CCC(N)=O)C(=O)N[C@H](C(=O)N[C@@H](CCSC)C(=O)N[C@@H](CC(=O)O)C(=O)N[C@@H](CO)C(=O)NCC(=O)N[C@@H](Cc2ccc(O)cc2)C(=O)N[C@@H](Cc2ccc(O)cc2)C(=O)NCC(=O)O)[C@@H](C)CC)[C@@H](C)CC)NC(=O)[C@H](C)NC1=O [M14N] (HELM PEPTIDE1{G.G.D.G.S.I.A.E.Y.F.N.R.P.N.H.I.H.D.W.Q.I.M.D.S.G.Y.Y.G}$PEPTIDE1,PEPTIDE1,1:R1-8:R3$$$V2.0)",B. cenocepacia AU0756 MIC,B. cenocepacia AU0756,0.5 to 2 µM
same,Experimental observation (enrichment observed in the screen),[1],-4.7
same,Inhibits Growth,E. coli MC1061,Yes
"CC[C@H](C)[C@@H]1NC(=O)[C@H](CO)NC(=O)CNC(=O)[C@H](CC(=O)O)NC(=O)CNC(=O)CNC(=O)CC[C@@H](C(=O)N[C@@H](Cc2ccc(O)cc2)C(=O)N[C@@H](Cc2ccccc2)C(=O)N[C@@H](CC(N)=O)C(=O)N[C@@H](CCCNC(=N)N)C(=O)N2CCC[C@H]2C(=O)N[C@@H](CCSC)C(=O)N[C@@H](Cc2c[nH]cn2)C(=O)N[C@@H](CCC(=O)O)C(=O)N[C@@H](Cc2c[nH]cn2)C(=O)N[C@@H](CC(=O)O)C(=O)N[C@@H](Cc2c[nH]c3ccccc23)C(=O)N[C@@H](CCC(N)=O)C(=O)N[C@H](C(=O)N[C@@H](CCSC)C(=O)N[C@@H](C)C(=O)N[C@@H](CO)C(=O)NCC(=O)N[C@@H](Cc2ccc(O)cc2)C(=O)N[C@@H](Cc2ccc(O)cc2)C(=O)NCC(=O)O)[C@@H](C)CC)NC(=O)[C@H](C)NC1=O [I16E D23A] (HELM PEPTIDE1{G.G.D.G.S.I.A.E.Y.F.N.R.P.M.H.E.H.D.W.Q.I.M.A.S.G.Y.Y.G}$PEPTIDE1,PEPTIDE1,1:R1-8:R3$$$V2.0)",B. cenocepacia AU0756 MIC,B. cenocepacia AU0756,2 to 8 µM
same,Experimental observation (enrichment observed in the screen),[1],Dropout
same,Inhibits Growth,E. coli MC1061,Yes
"CC[C@H](C)[C@H](NC(=O)[C@H](CCC(N)=O)NC(=O)[C@H](Cc1c[nH]c2ccccc12)NC(=O)[C@H](CC(=O)O)NC(=O)[C@H](Cc1c[nH]cn1)NC(=O)[C@H](C)NC(=O)[C@H](Cc1c[nH]cn1)NC(=O)[C@H](CCSC)NC(=O)[C@@H]1CCCN1C(=O)[C@H](CCCNC(=N)N)NC(=O)[C@H](CC(N)=O)NC(=O)[C@H](Cc1ccccc1)NC(=O)[C@H](Cc1ccc(O)cc1)NC(=O)[C@@H]1CCC(=O)NCC(=O)NCC(=O)N[C@@H](CC(=O)O)C(=O)NCC(=O)N[C@@H](CO)C(=O)N[C@@H]([C@@H](C)CC)C(=O)N2CCC[C@H]2C(=O)N1)C(=O)N[C@@H](CCSC)C(=O)N[C@@H](CC(=O)O)C(=O)N[C@@H](CO)C(=O)NCC(=O)N[C@@H](Cc1ccc(O)cc1)C(=O)N[C@@H](Cc1ccc(O)cc1)C(=O)NCC(=O)O [A7P I16A] (HELM PEPTIDE1{G.G.D.G.S.I.P.E.Y.F.N.R.P.M.H.A.H.D.W.Q.I.M.D.S.G.Y.Y.G}$PEPTIDE1,PEPTIDE1,1:R1-8:R3$$$V2.0)",B. cenocepacia AU0756 MIC,B. cenocepacia AU0756,4 to 8 µM
same,Experimental observation (enrichment observed in the screen),[1],Dropout
same,Inhibits Growth,E. coli MC1061,Yes
GGDGSI*EYFNRPMVIHDWQIMDSGMYG,Enrichment,[1],4.338
GGDGSIAEYFNRPMHIHEWQIM*SGYYG,Enrichment,[1],4.458
